Assay results reported in the NIST ThermoML archive (doi:10.1016/j.jct.2007.04.006).

How the values were obtained:
[1] = 101.33 kPa, Liquid; for speed of sound: Sing-around technique in a fixed-path interferometer
[2] = mn = molality of the nth substance listed, in mol/kg; details: 101 kPa, Liquid; for speed of sound: Sing-around technique in a fixed-path interferometer

CC(=O)N(C)C [N,N-dimethylethanamide]
[1], 323.15 K
Details | mass density [kg/m3] | speed of sound [m/s]
– | 913.129 | 1357.8

CC(C)=O [acetone]
[1], 298.15 K
Details | mass density [kg/m3] | speed of sound [m/s]
– | 784.233 | 1161.7

CC#N [acetonitrile]
[1], 298.15 K
Details | mass density [kg/m3] | speed of sound [m/s]
– | 776.6 | 1279.2

CCO [ethanol]
[1], 298.15 K
Details | mass density [kg/m3] | speed of sound [m/s]
– | 785.125 | 1143.4

[Br-].[Li+] [lithium bromide] + CC#N
[2], 298.15 K
Details | mass density [kg/m3] | speed of sound [m/s]
m1 = 0.0209 | 778.135 | 1279.8
m1 = 0.0302 | 778.802 | 1280.1
m1 = 0.0403 | 779.512 | 1280.4
m1 = 0.0478 | 780.04 | 1280.6
m1 = 0.07 | 781.58 | 1281.3
m1 = 0.0799 | 782.247 | 1281.6
m1 = 0.0904 | 782.95 | 1281.9
m1 = 0.0986 | 783.518 | 1282.1
m1 = 0.1212 | 784.97 | 1282.8
m1 = 0.1506 | 786.812 | 1283.7
m1 = 0.1985 | 789.96 | 1285
m1 = 0.2498 | 793.354 | 1286.4
m1 = 0.2981 | 796.544 | 1287.7
m1 = 0.3974 | 803.094 | 1290.4
m1 = 0.5004 | 809.733 | 1293.1
m1 = 0.596 | 815.99 | 1295.6
m1 = 0.6972 | 822.595 | 1298.2

[Br-].[Li+] [lithium bromide] + CC(=O)N(C)C
[2], 323.15 K
Details | mass density [kg/m3] | speed of sound [m/s]
m1 = 0.0322 | 915.827 | 1360.8
m1 = 0.0511 | 917.401 | 1362.5
m1 = 0.0638 | 918.452 | 1363.6
m1 = 0.0978 | 921.232 | 1366.4
m1 = 0.1188 | 922.89 | 1368.1
m1 = 0.1475 | 925.178 | 1370.3
m1 = 0.2003 | 929.349 | 1374.4
m1 = 0.2472 | 933.065 | 1378.2
m1 = 0.3042 | 937.515 | 1382.1
m1 = 0.3988 | 944.893 | 1389.2
m1 = 0.4886 | 951.867 | 1395.9
m1 = 0.601 | 960.362 | 1403.8
m1 = 0.7053 | 968.26 | 1411.4
m1 = 0.9019 | 982.963 | 1425.5
m1 = 1 | 990.219 | 1432.6
m1 = 1.189 | 1004.06 | 1446.1
m1 = 1.327 | 1013.96 | 1455.4

[Br-].[Li+] [lithium bromide] + CC(C)=O
[2], 298.15 K
Details | mass density [kg/m3] | speed of sound [m/s]
m1 = 0.0301 | 784.377 | 1141.5
m1 = 0.0367 | 785.81 | 1142.3
m1 = 0.0486 | 786.228 | 1142.6
m1 = 0.0679 | 787.379 | 1143.1
m1 = 0.0776 | 787.748 | 1143.3
m1 = 0.0873 | 790.137 | 1144.5
m1 = 0.099 | 793.601 | 1146.2
m1 = 0.1177 | 797.348 | 1148.1
m1 = 0.1424 | 803.296 | 1150.9
m1 = 0.3719 | 806.427 | 1152.3
m1 = 0.4973 | 811.456 | 1154.5
m1 = 0.5928 | 818.719 | 1157.7
m1 = 0.7044 | 824.988 | 1160.3
m1 = 0.8 | 829.74 | 1162.3

[Br-].[Li+] [lithium bromide] + CC(C)O
[2], 298.15 K
Details | mass density [kg/m3] | speed of sound [m/s]
m1 = 0.0787 | 786.228 | 1142.6
m1 = 0.0957 | 787.379 | 1143.1
m1 = 0.1024 | 787.748 | 1143.3
m1 = 0.1387 | 790.137 | 1144.5
m1 = 0.1915 | 793.601 | 1146.2
m1 = 0.2503 | 797.348 | 1148.1
m1 = 0.3451 | 803.296 | 1150.9
m1 = 0.3951 | 806.427 | 1152.3
m1 = 0.4768 | 811.456 | 1154.5
m1 = 0.594 | 818.719 | 1157.7
m1 = 0.697 | 824.988 | 1160.3
m1 = 0.7757 | 829.74 | 1162.3
m1 = 0.9066 | 837.46 | 1165.4
m1 = 1.003 | 843.093 | 1167.7
m1 = 1.158 | 851.831 | 1170.5
m1 = 1.272 | 858.084 | 1173.5

[Br-].[Li+] [lithium bromide] + CCO
[2], 298.15 K
Details | mass density [kg/m3] | speed of sound [m/s]
m1 = 0.0789 | 790.432 | 1147
m1 = 0.0913 | 791.251 | 1147.4
m1 = 0.0985 | 791.782 | 1147.8
m1 = 0.1384 | 794.334 | 1149.2
m1 = 0.1556 | 795.465 | 1150.1
m1 = 0.2019 | 798.467 | 1151.6
m1 = 0.2348 | 800.584 | 1152.6
m1 = 0.2495 | 801.494 | 1153.2
m1 = 0.301 | 804.725 | 1154.7
m1 = 0.4002 | 810.966 | 1157.8
m1 = 0.4903 | 816.539 | 1160.5
m1 = 0.6076 | 823.796 | 1163.8
m1 = 0.7038 | 829.747 | 1166.5
m1 = 0.8013 | 835.512 | 1168.9
m1 = 0.8975 | 841.268 | 1171.5
m1 = 1.013 | 848.08 | 1174.4
m1 = 1.093 | 852.846 | 1176.6
m1 = 1.215 | 860.012 | 1179.5

[Br-].[Li+] [lithium bromide] + CO
[2], 298.15 K
Details | mass density [kg/m3] | speed of sound [m/s]
m1 = 0.0425 | 789.48 | 1110.7
m1 = 0.0588 | 790.553 | 1111.3
m1 = 0.0714 | 791.384 | 1112
m1 = 0.0903 | 792.602 | 1112.8
m1 = 0.1168 | 794.333 | 1113.9
m1 = 0.1473 | 796.328 | 1115.1
m1 = 0.2089 | 800.289 | 1117.7
m1 = 0.2993 | 806.041 | 1121.1
m1 = 0.5035 | 818.761 | 1128.8
m1 = 0.7097 | 831.385 | 1136.2
m1 = 0.9875 | 848.253 | 1146.1
m1 = 1.163 | 858.424 | 1152
m1 = 1.464 | 876.582 | 1162.5
m1 = 1.97 | 905.481 | 1179.6
m1 = 2.45 | 933.222 | 1195.9
m1 = 3.489 | 989.847 | 1231.2

CO [methanol]
[1], 298.15 K
Details | mass density [kg/m3] | speed of sound [m/s]
– | 786.71 | 1108.5

CC(C)O [propan-2-ol]
[1], 298.15 K
Details | mass density [kg/m3] | speed of sound [m/s]
– | 780.804 | 1139.1
